Reference: patent US9988341B2, “Bacterial topoisomerase inhibitors and use thereof” (THE FLORIDA INTERNATIONAL UNIVERSITY BOARD OF TRUSTEES, priority 2016, dated 2018)
In brackets after ≈: the same amount, converted by molar mass.

Experiments:
[1] = system: M. smegmatis mc2 155/pTA-M+; test: microbe, parasite or virus in culture; assay type: cell-based; conditions: Mycolicibacterium smegmatis, MC2155, read-out: MIC, M. smegmatis mc2 155/pTA-M+
M. smegmatis = M. smegmatis loss of viability (viable colony counts); assay type: cell-based

Row | Structure (SMILES) | MIC [1] | Time course of loss of viable colony counts, MtbTopI overexpression (M. smegmatis)
1 | CCCC[C@@H](CN[C@@H](CN)CCCCNC)NCc1cccc2ccccc12 [Compound 2471-36] | 50 µM (≈ 19.2 µg/mL) | 
2 | CCCC[C@@H](CN[C@H](CN)CCCCNC)NCc1cccc2ccccc12 [Compound 2471-12, (S)—N6-methyl-N2-((S)-2-(naphthalen-1-ylmethylamino)hexyl)hexane-1,2,6-triamine] | 50 µM (≈ 19.2 µg/mL) | reduction of cell killing
